Experimental data as given in patent US20080234381A1, “Novel Trifluoromethoxy-Substituted Aryl Anilides” (Novo Nordisk A/S, priority 2005, published 2008).

With `N#Cc1ccc(NC(=O)c2ccc3ccccc3c2O)c(OC(F)(F)F)c1` [Example 1, 1-Hydroxy-naphthalene-2-carboxylic acid(4-cyano-2-trifluoromethoxy-phenyl)-amide] the melting point was 178 °C. Molecule `N#Cc1ccc(NC(=O)c2c(O)ccc3ccccc23)c(OC(F)(F)F)c1` [Example 2, 2-Hydroxy-naphthalene-1-carboxylic acid(4-cyano-2-trifluoromethoxy-phenyl)-amide] has a melting point of 169 °C. `N#Cc1ccc(NC(=O)c2cc3ccccc3cc2O)c(OC(F)(F)F)c1` [Example 3, 3-Hydroxy-naphthalene-2-carboxylic acid(4-cyano-2-trifluoromethoxy-phenyl)-amide] gave a melting point of 248 °C.
